Experimental data as given in patent publication US20060105375A1, “Bioretrosynthetic methods for preparing products and compositions related thereto” (priority 2004, published 2006).
Read-outs that look alike come from different tables or passages of the source.

Experiments:
[1] = test system: E. coli BL21(DE3) expressing mutant HPRT; assay: Time course sensitivity determination by triazole dilution assay of HPRT mutant clones; format: cell-based; conditions: growth-impaired HPRT mutant clones, FIG. 22A
Source text: FIG. 22A is a graph of time course of sensitivity of clones identified by triazole sensitivity screening methodology. FIG. 22B is a SDS-PAGE gel of expression and nickel affinity purification of 8B3 HPRT. Left is cell-free extract and right is purified 8B3.
It is widely appreciated that ribavirin is a broad-spectrum antiviral nucleoside analog. […] This would form the basis of a ready-made survival based bioassay for ribavirin-1-phosphate biosynthesis directed evolution (FIG. 20). In this selection scheme an E. coli library containing variants of the purine salvage enzyme hypoxanthine phosphoribosyltransferase (HPRT) is replicated into M9 media supplemented with 1,2,4-triazole carboxamide 7 “protoxin.” Active enzymes react triazole with endogenous PRPP 8 to form ribavirin monophosphate 5, an IMPDH poison resulting in growth inhibition. […] Subsequently, a library of mutagenized HPRT in E. coli was evaluated. […]
(§1) A small mutant library of ca. 1000 members was replica plated into 96-well plates containing minimal medium (M9), kanamycin and 200 μM synthetically prepared 1,2,4-triazole carboxamide (2), a concentration found to be non-lethal to transformed E. coli BL21(DE3) under these conditions. […] The mutant and wild type HPRT enzymes were expressed as His×6 tagged proteins and purified to homogeneity (FIG. 22B).

[2] = test system: transformed E. coli BL21(DE3); assay: Growth of transformed E. coli in minimal medium (M9) with 1,2,4-triazole carboxamide protoxin; format: cell-based; conditions: 200 μM, kanamycin, 96-well plates
Source text: It is widely appreciated that ribavirin is a broad-spectrum antiviral nucleoside analog. […] This would form the basis of a ready-made survival based bioassay for ribavirin-1-phosphate biosynthesis directed evolution (FIG. 20). In this selection scheme an E. coli library containing variants of the purine salvage enzyme hypoxanthine phosphoribosyltransferase (HPRT) is replicated into M9 media supplemented with 1,2,4-triazole carboxamide 7 “protoxin.” Active enzymes react triazole with endogenous PRPP 8 to form ribavirin monophosphate 5, an IMPDH poison resulting in growth inhibition. Negative controls with synthetically prepared 1,2,4-triazole carboxamide 7 and complementation experiments with guanosine monophosphate confirmed the validity of this method. Subsequently, a library of mutagenized HPRT in E. coli was evaluated. The assay can be improved by adding nutrients to the medium.
as §1, with “conditions. Plates were grown for 5 days at 37° C. and cell growth was visualized by staining with tetrazolium blue.” for “conditions.”

[3] = biological target: T1, PNP (purine nucleoside phosphorylase) (Escherichia coli, UniProt P0ABP8); assay: Phosphorolysis of inosine vs. dideoxyinosine by PNP (basal activity, Lineweaver-Burke plot); format: biochemical, E. coli; conditions: apparent Km values
T1 sequence (P0ABP8 1-239): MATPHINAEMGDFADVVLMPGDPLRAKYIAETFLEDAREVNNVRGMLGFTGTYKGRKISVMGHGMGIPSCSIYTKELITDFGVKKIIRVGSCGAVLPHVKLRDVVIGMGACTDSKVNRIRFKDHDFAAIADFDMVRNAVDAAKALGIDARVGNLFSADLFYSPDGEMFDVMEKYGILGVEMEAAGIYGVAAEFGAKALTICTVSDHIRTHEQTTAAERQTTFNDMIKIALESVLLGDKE

[4] = biological target: inosine monophosphate dehydrogenase (IMPDH) (Escherichia coli, UniProt P0ADG7); conditions: cited from earlier work
Chain of inosine monophosphate dehydrogenase (IMPDH) (P0ADG7 whole entry): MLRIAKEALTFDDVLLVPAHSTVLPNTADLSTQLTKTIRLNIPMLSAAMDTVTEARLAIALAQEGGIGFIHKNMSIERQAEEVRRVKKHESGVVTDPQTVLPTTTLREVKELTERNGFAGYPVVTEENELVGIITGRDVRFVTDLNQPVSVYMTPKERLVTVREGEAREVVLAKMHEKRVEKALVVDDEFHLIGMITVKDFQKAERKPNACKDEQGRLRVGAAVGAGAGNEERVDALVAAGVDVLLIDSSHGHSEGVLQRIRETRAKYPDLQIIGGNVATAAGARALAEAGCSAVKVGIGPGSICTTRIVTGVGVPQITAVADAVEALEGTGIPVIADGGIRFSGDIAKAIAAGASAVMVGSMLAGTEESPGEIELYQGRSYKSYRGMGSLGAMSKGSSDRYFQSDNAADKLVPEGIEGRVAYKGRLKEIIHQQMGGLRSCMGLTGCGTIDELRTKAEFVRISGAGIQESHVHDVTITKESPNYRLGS

[5] = substrate: OC[C@H]1O[C@@H](n2cnc3c(O)ncnc32)[C@H](O)[C@@H]1O; assay: Phosphorolysis of inosine vs. dideoxyinosine by PNP (basal activity, Lineweaver-Burke plot); format: biochemical, E. coli; conditions: other: substrate of PNP; reverse reaction (phosphorolysis, release of hypoxanthine) monitored with colorimetric assay of FIG. 7

Molecule: NC(=O)c1nc[nH]n1 [1,2,4-triazole carboxamide]
- susceptibility of HPRT mutants to triazole in vivo (versus wild type) [1]: > 2 fold
- lethality to transformed E. coli BL21(DE3) [2]: non-lethal

Molecule: O=c1[nH]cnc2c1ncn2[C@H]1CC[C@@H](CO)O1 [ddI, dideoxyinosine]
- Km of ddI relative to that of inosine [3]: > 100 times

Molecule: NC(=O)c1ncn([C@@H]2O[C@H](COP(=O)(O)O)[C@@H](O)[C@H]2O)n1 [ribavirin-1-phosphate 5, ribavirin monophosphate]
- inhibition of IMPDH [4]: potent competitive inhibitor
- inhibition of IMPDH ([4]; listed as Ribavirin monophosphate): competitive inhibitor

B1: PNP (purine nucleoside phosphorylase) (Escherichia coli K-12) (protein)
chain: MATPHINAEMGDFADVVLMPGDPLRAKYIAETFLEDAREVNNVRGMLGFTGTYKGRKISVMGHGMGIPSCSIYTKELITDFGVKKIIRVGSCGAVLPHVKLRDVVIGMGACTDSKVNRIRFKDHDFAAIADFDMVRNAVDAAKALGIDARVGNLFSADLFYSPDGEMFDVMEKYGILGVEMEAAGIYGVAAEFGAKALTICTVSDHIRTHEQTTAAERQTTFNDMIKIALESVLLGDKE
- Km [5]: 56 µM
